Data taken from a melting point compilation (Tetko et al.; mined from patent text by program, amines drawn as free bases though some values may be those of a salt).

SMILES | melting point [°C]
Cc1cc2c(cc1Cl)[nH]c1c(C(=O)O)cccc12 | 310
CC(C)(C)OC(=O)NC(=O)C(c1ccccc1)c1ccccc1 | 160 to 162
Cc1cc(OCc2ccccc2)cc(NC(=O)OC(C)C)c1C(=O)O | 137 to 139
CC(C)(C)c1cc(-c2cncc(C3SC(N4CCOCC4)=NC3=O)c2)ccc1O (centres undefined) | 231 to 234
Cc1nnc(-c2ccc3occ(C#N)c3c2)o1 | 188 to 189
CCCCC(=O)Nc1ccc(C(=O)OC)cc1[N+](=O)[O-] | 106 to 107
O=C(O)c1cccc(CN2CCC(c3cn(CC4CC4)c4ccccc34)CC2)c1 | 207
Cc1nc(C(=O)N(C)C)c2n1-c1ccc(Cl)cc1C(c1ccccc1)=NC2 | 173 to 175
CC(C)(C)C(=O)Nc1ncc(Cl)cc1C=O | 169 to 171
CCOC(=O)c1c(C)cc2cnc(-c3ccccc3Cl)nc2c1C | 69.5 to 70.5
O=C(O)c1cc2c([N+](=O)[O-])c(O)c(O)cc2oc1=O | > 300
O=C(NNc1ccccc1)c1ccc(F)cc1F | 171 to 173
COc1nc2ccc3c(c2o1)C(CCNC(C)=O)CC3 (centres undefined) | 126 to 128
O=C(O)c1ccc(CN2C(=O)C3(COc4cc5c(cc43)OCCO5)c3ccccc32)cc1 (centres undefined) | 234 to 237
O=C1CNc2ccc(F)cc2O1 | 199
C=CCn1c(C)c(C)c2cnnc(OCc3ccc(F)cc3F)c21 | 125 to 126
CN(C)CCN(c1ccccc1NCCOc1ccc(Cl)cc1)S(=O)(=O)c1ccc(Cl)cc1 | 99
CCOC(=O)C(=O)NNc1ccc(NC(=S)NC)cc1 | 168 to 169
CC1(C)CC(=O)c2c(Sc3ccccc3)sc(-c3cc[nH]n3)c2C1 | 231 to 234
N#CC1=C(C2CCNCC2)Nc2n[nH]cc2C1c1cccc2nonc12 (centres undefined) | 216
CN1C2CCC1CN(c1ccc3cc([N+](=O)[O-])ccc3n1)C2 | 152 to 154

SMILES | melting point [°C]
NC1=NC(c2cccc(-c3cccnc3F)c2)(c2cnn(CC(F)(F)F)c2)C2=NCCCN12 (centres undefined) | 106 to 116
CCCC(=O)Nc1ccc(N2CCC(NC[C@H](O)COc3cccc4[nH]c(=O)[nH]c34)CC2)cc1 | 190 to 201
CCCCn1cc(C(=O)C(=O)O)c2cc(-c3ccc(OC)cc3)ccc21 | 172 to 173
CNc1nc(-c2ccc(OCc3ccc(Cl)cc3)cc2)cs1 | 158 to 159
CN1CCN(c2ccc(S(=O)(=O)Oc3cccc([N+](=O)[O-])c3)cc2)C1=O | 167 to 169
Cc1c(F)c(N2CCC(C)(CN)C2)c(F)c2c1c(=O)c(C(=O)O)cn2C1CC1 (centres undefined) | 182 to 184
COc1cnc(N2CCN(c3ccc(N)cc3)CC2)nc1 | 125
CS(=O)(=O)c1ccc(-c2cnn(-c3cccc(Cl)c3)c(=O)c2SCc2ccccc2)cc1 | 142 to 145
CCCCOc1c(N(C)C(=O)OC(C)(C)C)n(CC(C)C)c(=O)c2ccc(-n3cnnn3)cc12 | 199 to 200
COC(=O)c1ccc2c(c1)NCc1ccccc1O2 | 125 to 126
CCCCNCc1cc(N)c(Cc2ccccc2)c(S(N)(=O)=O)c1 | 141 to 143
Cc1ccc(S(=O)(=O)NC(=O)c2cccc(OCc3csc(-c4ccccc4)n3)c2)cc1 | 170 to 172
Cc1cc(O)c(C(=O)CCC(F)(F)F)c(=O)o1 | 104
CN1C2CCC1CC(c1c[nH]c3cc(F)ccc13)C2 (centres undefined) | 168 to 169
O=C(c1ccc(O)cc1)C12CC3CC(C1)CC(C(=O)c1ccc(O)cc1)(C3)C2 | 208 to 209
COC(=O)C[C@H]1C[C@H](C=Cc2c(-c3ccc(F)cc3)c(-c3ccc(F)cc3)c(C(=O)OCc3ccccc3)n2C(C)C)OC(C)(C)O1 | 125 to 127
Cc1ccc(-c2cccc(/C=C/C(=O)O)c2)cc1 | 186 to 187
C=C(C)COc1ccc2c(=O)c(C)c(-c3ccccc3)oc2c1C(=O)C=Cc1ccccc1 | 145 to 147
CCOC(=O)c1c(CN2CCSCC2)nc2cc(OC)c(OC)cc2c1-c1ccc(OC)c(OC)c1 | 148 to 149
CCCCCCC1=C(Br)C(CBr)(NCc2ccccc2)OC1=O (centres undefined) | 72 to 75

Next, values leading:

melting point [°C] | SMILES
230 to 232 | CC(C)(C)N1CCc2c(C(=O)O)nc3c(C#N)cnn3c21
46 to 47 | CC(=O)NCc1ccsc1
213 to 214 | CNC(=O)[C@H](CO[Si](C)(C)C(C)(C)C)NC(=O)Nc1n[nH]c(=S)s1
270 to 277 | C[C@@H](NC(=O)c1c[nH]c2ncc(-c3nn(C)c4cc(F)ccc34)nc12)C(=O)N1CC(C#N)C1
211 to 214 | CC(C)(C)c1cc(NC(=O)C=Cc2ccccc2)cc(C(C)(C)C)c1O
122 to 125 | COC(=O)c1nc(-c2ccc(Cl)c(OC)c2F)cc(N)c1C
75 | CCCCCC1CCC(c2ccc(-c3cc(F)c(C(F)(F)Oc4cc(F)c(C(F)(F)F)c(F)c4)c(F)c3)c(F)c2)OC1 (centres undefined)
135 to 142 | Cc1ccc([N+](=O)[O-])cc1NC(=N)N
173 to 174 | O=C(Nc1nc(C(C(=O)O)=C(Cl)C(=O)OCc2ccccc2)cs1)OCc1ccccc1
196 to 198 | NS(=O)(=O)c1cc2cccc(O)c2s1
148 | Cc1ccc(-c2cc(NCCNc3cc(-c4cccs4)[nH]n3)n[nH]2)cc1
140 to 142 | O=C(O)C1Cc2ccccc2N1C(=O)CCS (centres undefined)
162 to 163 | Oc1ccc(N=C2SCS2)cc1
255 to 265 | O=C1C=C(c2c[nH]c3ccc(F)cc23)C(=O)N1
174 to 176 | CCOc1ccc(C(=O)NCc2ccc3c(c2)C(=O)N(C2(C)CCC(=O)NC2=O)C3=O)cn1 (centres undefined)
192 to 193 | CN1CCC(c2ccc(-c3ccccc3)cc2)(C(C)(C)O)CC1
79 to 82 | NC(=O)c1ccc(CCCOCCCCCCBr)cc1
234 to 236 | Cc1cccc(C(=O)Nc2cccc3c2C(=O)N(C2CCC(=O)NC2=O)C3=O)c1 (centres undefined)
275 to 276 | O=c1[nH]c2cc(Cl)ccc2c(=O)n1S(=O)(=O)c1ccccc1Cl
75 to 77 | CC(C)(C)OC(=O)NCCCc1ccccc1O

melting point [°C] | SMILES
170 | Clc1ccc(C=NCCN=Cc2ccc(Cl)nc2)cn1
134 to 136 | CCCCCCc1c(CCCC)nc2ncnn2c1N
151 to 152 | CNC(=O)CC1CN=C(c2cc3cc(Oc4ccc(S(C)(=O)=O)nc4)c(F)c(OCCOC)c3[nH]2)S1 (centres undefined)
116 to 117 | O=C(O)CCc1cn(Cc2ccc(OCc3cccnc3)cc2)nc1OCc1cccnc1
289 to 292 | C[C@@H]1CCCN1CCCOc1ccc2c(c1)CCc1cc(=O)[nH]nc1-2
196 to 201 | CCOC(=O)c1cn(C2CN(C(c3ccccc3)c3ccccc3)C2)c2cc(F)c(F)cc2c1=O
> 250 | Cc1c(O)c(C=O)c2nc3c(O)ccc(C(=O)NCCN(C)C)c3nc2c1O
206 | CC1CC2C3CCC4=CC(=O)CCC4=C3C(c3ccc(-c4cccnc4)cc3)CC2(C)C1C(=O)C1CC1 (centres undefined)
207 to 208 | Cc1oc(-c2ccccc2)nc1COc1cncc(COc2ccccc2CC(=O)O)c1
190 to 191 | CS(=O)(=O)c1ccc(-c2sc(-c3ccc(Br)s3)nc2-c2ccc(F)cc2)cc1
171 to 172 | CCN1c2ncc(CNc3cccc([N+](=O)[O-])c3)cc2C(=O)N(C)c2ccc(Cl)nc21
130 to 131 | C[C@@H](N1CCN(c2ccc(Cl)cc2)C1=O)[C@@]1(c2ccc(F)cc2F)CO1
112 to 113 | CCOC(=O)COc1cc2c(c(Cl)c1Cl)C(=O)C(CC#C[Si](C)(C)C)(c1ccccc1)C2 (centres undefined)
180 | COC1C(CO)OC(n2cnc3c(N)ncnc32)C1(C)O (centres undefined)
> 270 | N#CNC(=S)Nc1ccc(OCc2ccccc2)cc1
183 to 184 | O=C(O)c1cc2c(s1)C1CCC2C1 (centres undefined)
218 to 220 | O=C1c2ccccc2C(=O)c2c1c(Oc1ccc(CCCO)cc1)c1ccccc1c2Oc1ccc(CCCO)cc1
115 to 116 | Cc1cc(C)n2ncc(Br)c2n1
165 to 180 | COCCN1CCc2ccc(Nc3ncc(Cl)c(Nc4ccccc4C(=O)NC4CC4)n3)cc2CC1
240 | CCCc1nc(CO)c(C(=O)O)n1Cc1cc2c(cc1Cl)OCO2

melting point [°C] | SMILES
210 to 212 | NC(=O)C(N)N=Nc1ccccc1C(=O)c1ccccn1 (centres undefined)
236 to 237 | COc1ccc(Sc2ccc([N+](=O)[O-])cc2)c(Cl)c1Cl
192 to 193 | c1cc(Oc2cnccn2)c2cc[nH]c2c1
59 to 61.5 | COC(=O)c1cc(Br)ccc1O
98 to 99 | CCCCCCCC(=O)OCOC1=C(C(=O)Nc2ccccn2)N(C)S(=O)(=O)c2ccccc21
175 to 177 | CCOC(=O)c1cccc(-c2c(C)c(NC(=O)CC(C)(C)C)c(C)c3c2OCC3c2ccc(C(C)C)cc2)c1 (centres undefined)
157 | O=C1C(c2ccccc2)=C(c2ccc(Cl)cc2)C(=O)N1c1ccc(Cl)cc1
176 | NS(=O)(=O)c1ccc(-n2nc(CCCNC(=O)Nc3cccc(C(F)(F)F)c3)cc2-c2ccccc2)cc1
176 to 187 | OCCCc1cccc(CCCO)c1O
68 to 72 | COC(=O)c1ccc(OCc2ccccc2)c(C(C)=O)c1
221 to 224 | O=C1Nc2cccc(Br)c2C(=O)N2CCC[C@@H]12
186 | CC(C)(C)OC(=O)N[C@@H](Cc1ccc(O)cc1)C(=O)NCC(=O)NCC(=O)Oc1c(Cl)c(Cl)c(Cl)c(Cl)c1Cl
130 | CC(c1cccc(C(=O)c2ccccc2)c1)C(O)CC#N (centres undefined)
222 to 224 | Cc1[nH]cnc1/C=C/C(=O)c1cc2ccccc2n1C
142 to 152 | CN(C(N)=S)c1ccc(-c2ncn(-c3ccc(OC(F)(F)F)cc3)n2)cc1
192 to 194 | OCc1nc2ccc(OC(F)(F)F)cc2[nH]1
114 | Cc1cc(Nc2ccnc(Nc3ccc(S(=O)(=O)N(C)C4CCN(CCS(C)(=O)=O)CC4)cc3)n2)ccc1F
235 to 238 | Nc1nc(-n2cc(C(=O)O)c(=O)c3cc(F)c(N4CC(O)C4)c(Cl)c32)c(F)cc1F
